Experiment: RP, Waters ACQUITY UPLC BEH C18, 50 × 2.1 mm, 1.7 µm, 35 °C, 0.25 mL/min, estimated dead time 0.44 min; A: water + 0.1% acetic acid, pH 3; B: acetonitrile; gradient (min/%B) 0/5 1.12/5 6.41/99.5 10.01/99.5
Settings: stereoisomer not certain

Compound | LC retention time
NC(Cc1ccccc1)C(=O)NC(Cc1ccccc1)C(=O)O (stereo not given) [Phe-phe] | 4 min
CCCCCCCCCC(=O)O [decanoic acid] | 10 min
CCCCCCCCCCCCCCCCC(=O)O [heptadecanoic acid] | 15 min
O=C(O)CCCCCCCCCCCCCCC(=O)O [hexadecanedioic acid] | 9.37 min
O=S(=O)([O-])Oc1c[nH]c2ccccc12.[K+] [indoxyl sulfuric acid] | 2 min
COCC(NC(C)=O)C(=O)NCc1ccccc1 (stereo not given) [lacosamide] | 4 min
CCCCCCCCCCCCCCCCCC(=O)OCC(O)COP(=O)([O-])OCC[N+](C)(C)C (stereo not given) [lysoPC(18:0/0:0)] | 11.5 min

Continued, values first:

LC retention time | Compound
5 min | O=C(O)CCCCCCCC(=O)O [nonanedioic acid]
2 min | NC(=O)CCC(NC(=O)Cc1ccccc1)C(=O)O (stereo not given) [phenylacetylglutamine]
1 min | NC(Cc1c[nH]c2ccccc12)C(=O)O (stereo not given) [tryptophan]
